The values that follow come from patent US7521536B2, “Glutamate transporter associated protein” (The Johns Hopkins University School of Medicine, priority 1999, dated 2009).

Data set [1] relates to GTRAP3-18. Kind of data set: GTRAP3-18 antisense oligomers transfected into HEK293 cells. Type of data set: cell-based. From the text: Western blot analyses and glutamate uptake assays reveal endogenous expression of EAAC1 and GTRAP3-18 protein in HEK cells, but no expression of other transporter subtypes, e.g., GLAST, GLT-1, or EAAT4. Antisense oligomers, targeted to the 5′-GTRAP3-18 transcript, were transfected into HEK293 cells.

Data set [2] relates to GTRAP3-18. Kind of data set: intraventricular GTRAP3-18 antisense oligomers, cortical glutamate uptake. Type of data set: in vivo. The protocol: To examine modulation of EAAC1 by GTRAP3-18 in vivo, GTRAP3-18 antisense oligomers were administered intraventricularly. Sequences for the novel phosphodiester oligonucleotides used were: sense GTRAP3-18: 5′-GTGAACCTTGCCCGCTC-3′, antisense GTRAP3-18: 5′-GAGCGGGGCAAGGTTCAC-3′ Oligonucleotides (5 μg/μL), separately or in combination were administered intraventricularly over 3-11 days, by mini-osmotic pumps (Alza Corp., Palo Alto, Calif.) as described previously (Rothstein et al., (1994)).

In data set [3] the test system is GTRAP3-18. Kind of data set: intraventricular infusion of retinoic acid, cortical GTRAP3-18 and glutamate uptake. It is filed as in vivo. The protocol:
To test this hypothesis in vivo, retinoic acid was infused intraventricularly (1-20 μM; 0-20 pmol/μL). […] This effect is specifically due to decreased EAAC1 -mediated transport because it was not altered by the glutamate transport inhibitor dihydrokainic acid, at a concentration that predominantly effects GLT-1 (Robinson et al. (1998)). […] Retinoic acid had no effect on glutamate transport by cells expressing GLT-1 or EAAT4.

In data set [4] the test system is EAAT4. Kind of data set: cerebellar glutamate uptake after intra-cisternal injection of HSV amplicon vectors. Type of data set: in vivo, rat. To be noted: inhibitor of GLT-1 mediated glutamate transport.
Data set [5] relates to EAAT4. Briefly: Na+-dependent glutamate uptake in EAAT4 expressing HEK cells transfected with PCTAIRE. It is filed as cell-based. The protocol:
Transfection of EAAT4 expressing HEK cells with PCTAIRE results in diminished Na^+-dependent glutamate uptake. HEK cells and EAAT4 expressing HEK cells were transfected with 1.0 μg of pCMV PCTAIRE plasmid, and allowed to express for 48 hours. Cell monolayers were then washed with tissue buffer (50 mM Tris, 320 mM sucrose, pH 7.4). The cells were then incubated for 4 min at 37° C. with 1 mL of either sodium-(120 mM NaCl, 25 mM NaHCO3, 5 mM KCl, 2 mM CaCl2, 1 mM KH2PO4, 1 mM MgSO4, 10% glucose and 10 μM glutamate or choline-(120 mM choline-Cl, 25 mM Tris-HCl, 5 mM KCl, 2 mM CaCl2, 1 mM KH2PO4, 1 mM MgSO4, 10% glucose and 10 μM glutamate) containing buffer. Glutamate uptake assays were then performed using L-[^3H]-Glutamate in the presence and absence of Na^+. After rinsing, cells were lysed in 0.1 N NaOH and lysate radioactivity measured using a scintillation counter. Protein content was measured and glutamate uptake calculated as the difference between Na^+ containing and sodium free values per mg of protein.
Inhibition of Na^+-dependent glutamate uptake by PCTAIRE is reversible using the cdk2 inhibitor olomucine. HEK cells expressing EAAT4 were transfected with 1.0 μg of pCMV PCTAIRE plasmid as described above, and allowed to express for 48 hours. Prior to glutamate uptake assay, cells were treated with 100 μM olomucine for 30 minutes at 37° C. as indicated. […]

The target of another data set is T1, EAAC1 (Rattus norvegicus, UniProt P51907).
T1 construct: For transient expression in HEK 293T cells, full-length EAAC1 cDNA was subcloned into the EcoR I/BamH I site; expressed in transfected cells; host or cells: HEK293 / HEK 293T, transient, pRK5
T1 sequence (P51907 1-523): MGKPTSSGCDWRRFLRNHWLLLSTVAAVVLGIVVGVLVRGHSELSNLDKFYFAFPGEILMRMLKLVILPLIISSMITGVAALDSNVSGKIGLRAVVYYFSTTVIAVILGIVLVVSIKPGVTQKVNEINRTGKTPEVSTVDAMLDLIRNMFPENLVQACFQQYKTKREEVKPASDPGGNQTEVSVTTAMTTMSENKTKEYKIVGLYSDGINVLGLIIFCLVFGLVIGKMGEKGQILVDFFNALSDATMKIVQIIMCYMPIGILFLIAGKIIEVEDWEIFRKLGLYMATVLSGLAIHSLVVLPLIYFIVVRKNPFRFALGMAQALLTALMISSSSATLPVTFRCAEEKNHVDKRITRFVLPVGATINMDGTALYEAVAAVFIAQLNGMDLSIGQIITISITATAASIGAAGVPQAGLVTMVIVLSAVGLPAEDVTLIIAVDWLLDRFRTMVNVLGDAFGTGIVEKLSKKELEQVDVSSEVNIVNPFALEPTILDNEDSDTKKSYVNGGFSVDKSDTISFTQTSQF
Kind of data set: sodium-dependent [3H]-glutamate transport in HEK293 cells co-expressing EAAC1 and GTRAP3-18. Type of data set: cell-based. From the text:
(§1) To test if GTRAP3-18 modulates EAAC1 function, sodium-dependent [^3H]-glutamate transport was studied in HEK293 cells co-expressing both proteins, 72 hrs after transfection (Rothstein et al. Neuron 16, 675-686 (1996); Lin et al., Neuron 20, 589-602 (1998)). Total glutamate transport progressively decreases with increasing GTRAP3-18 protein expression (FIG. 4). GTRAP3-18 negatively modulates EAAC1-mediated glutamate transport. GTRAP3-18 inhibited EAAC1-mediated transport, but had no effect on EAAT4 (n=6). The co-expression of GTRAP-3-18 has no effect on total EAAC1 protein expression. Analysis of HEK293 cells by confocal microscopy and surface biotinylation reveal no alteration in the membranous localization of EAAC1. Superoxide dismutase (SOD1) was used as a control. […] This effect is specific for EAAC1; co-expression of GTRAP3-18 with EAAT4 has no effect on transport activity. The inhibition of transport is not due to a decrease of EAAC1 protein level by the co-expression of GTRAP3-18, as quantitated by Western blotting. Similarly, the loss of EAAC1 activity is not due to altered protein trafficking; even at high levels of GTRAP3-18 expression, when little EAAC1-mediated transport is observed, EAAC1 surface expression is unaltered as determined by surface biotinylation and confocal microscopy.
To evaluate the biochemical nature of altered transport, kinetic analyses were performed with HEK293 cells co-expressing EAAC1 and GTRAP3-18. […] Similar results are observed with other cell lines (COS7 and C6 glioma).

For data set [6], the target named is T2, EAAT4 (Rattus norvegicus, UniProt O35921).
T2 sequence (O35921 1-561): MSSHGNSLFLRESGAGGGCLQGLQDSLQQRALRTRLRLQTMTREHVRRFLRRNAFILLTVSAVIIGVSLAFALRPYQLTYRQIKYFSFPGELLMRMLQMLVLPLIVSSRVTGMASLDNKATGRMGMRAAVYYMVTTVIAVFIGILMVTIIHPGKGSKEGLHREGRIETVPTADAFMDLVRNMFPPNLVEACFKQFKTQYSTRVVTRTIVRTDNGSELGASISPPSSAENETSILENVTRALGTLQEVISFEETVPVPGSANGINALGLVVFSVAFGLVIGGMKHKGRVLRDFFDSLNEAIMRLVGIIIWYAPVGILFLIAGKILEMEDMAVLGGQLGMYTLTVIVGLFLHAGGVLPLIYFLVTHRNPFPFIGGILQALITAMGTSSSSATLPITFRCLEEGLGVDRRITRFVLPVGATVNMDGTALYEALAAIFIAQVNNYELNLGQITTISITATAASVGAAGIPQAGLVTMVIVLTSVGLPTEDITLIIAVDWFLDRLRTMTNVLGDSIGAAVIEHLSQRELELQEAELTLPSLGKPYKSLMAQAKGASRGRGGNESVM
Briefly: sodium-dependent [3H]-glutamate transport in HEK293 cells co-expressing EAAT4 and GTRAP3-18. Type of data set: cell-based.
Excerpt: as §1

The next data set concerns the target T3, GST-EAAC1 (Rattus norvegicus, UniProt P51907).
T3 construct: made in house; BL21 is described for GST-EAAT4
T3 sequence (P51907 1-523): T1 sequence (P51907 1-523)
Briefly: in vitro cell-free binding to immobilized GST-EAAC1. To be noted: [35S]-labeled protein; not to GST alone. The protocol:
The interaction of GTRAP3-18 with EAAC1 was examined using in vitro and in vivo methods. For in vitro cell-free binding, EAAC1 was expressed as a fusion protein with glutathione S-transferase (GST), and GTRAP3-18 was produced and labeled with [^35S]-methionine by in vitro transcription and translation. Purified GST or GST-EAAC1 fusion proteins immobilized on glutathione-Sepharose were incubated with [^35S]-labeled GTRAP3-18 protein.

[7] abbreviates: eleven days of intraventricular treatment.
The mark [8] stands for this setting: antisense 50-100 ng/day intraventricular for 7-10 days, retinoic acid 2.5 μM.

As a reminder, the Km is the substrate concentration at which the rate is half of its maximum. Turning to “5′-GAGCGGGGCAAGGTTCAC-3′ (DNA, all phosphodiester, methylation of C not given here) [antisense GTRAP3-18, phosphodiester oligonucleotide antisense to the 5′-GTRAP3-18 transcript]”, in the data set with GTRAP3-18 [1], the EAAC1 protein level result is given as “not affected”, the “endogenous GTRAP3-18 protein level” value is recorded as “reduced” and the glutamate transport activity entry is reported as “elevated”. Also, the “Vmax of DHK-insensitive cortical glutamate uptake” value with GTRAP3-18 [2] (antisense-treated animals, control 1.08) came to 1.08 nmol/min/mg protein. The Michaelis-Menten constant (Km) in the data set with GTRAP3-18 [2] (antisense-treated animals, control Km=19.7 μM, read-out: Km of DHK-insensitive cortical glutamate uptake) came to 10 µM. Also, in the data set on GTRAP3-18 [2] (setting [7]), the GTRAP3-18 protein level entry is reported as “reduction” and the cortical glutamate uptake entry is on record as “significant increase”. Moreover, in the data set on GTRAP3-18 [3] (setting [8]), the “inhibition of glutamate transport seen with retinoic acid treatment” value is given as “blocks” and the “retinoic acid induction of GTRAP3-18” value is listed as “blocks”.
For the molecule “5′-GTGAACCTTGCCCGCTC-3′ (chemistry not fully specified) [sense GTRAP3-18, sense control phosphodiester oligonucleotide, reference compound]”, in the data set on GTRAP3-18 [2] (setting [7]), the cortical glutamate uptake entry was “not altered”.
Take `CC(C)[C@H]1CN[C@H](C(=O)O)[C@H]1CC(=O)O` [Dihydrokainic acid, reference compound]: the “effect on cerebellar glutamate uptake” value in the data set on EAAT4 [4] was “no effect”. The “effect of inhibitor on the antisense-induced increase in cortical glutamate uptake” value in the data set with GTRAP3-18 [2] (in vivo) is listed as “not altered”. Moreover, the “effect of inhibitor on the retinoic acid-induced decrease of glutamate uptake” value with GTRAP3-18 [3] (concentration that predominantly effects GLT-1) was “not altered”.
For `Cn1cnc2c(NCc3ccccc3)nc(NCCO)nc21` [olomucine, reference compound], the “inhibition of Na+-dependent glutamate uptake by PCTAIRE” value in the data set with EAAT4 [5] (100 μM for 30 minutes at 37° C. before uptake assay) is listed as “reversible”.
Take “PCTAIRE: serine/threonine kinase related to the cyclin-dependent kinase 2 (cdk2) family, interacts with amino terminus of EAAT4”: the “Na+-dependent glutamate uptake” value with EAAT4 [5] (1.0 μg pCMV PCTAIRE plasmid, 48 hours) is on record as “diminished”.

B1: GTRAP3-18: glutamate transporter EAAC1 associated protein, 188 amino acids (SEQ ID NO:6), rat JWA protein homologue (protein)
chain: MDVNLAPLRAWDDFFPGSDRFARPDFRDISKWNNRVVSNLLYYQTNYLVVAAMMISVVGFLSPFNMILGGIIVVLVFTGFVWAAHNKDILRRMKKQYPTAFVMVVMLASYFLISMFGGVMVFVFGITFPLLLMFIHASLRLRNLKNKLENKMEGIGLKKTPMGIILDALEQQEDSINKFADYISKARE
modifications: Rattus
As for B1, the “Vmax of glutamate transport” value with EAAC1 (EAAC1 and GTRAP3-18 co-expressing cells, EAAC1 only 1.02) was determined as 0.99 nmol/min/mg protein. Moreover, the Km with EAAC1 (EAAC1 and GTRAP3-18 co-expressing cells, EAAC1 only Km=9 μM, n=4) turned out to be 40 µM. In addition, the “effect on EAAC1-mediated glutamate transport” value with EAAC1 (HEK293 cells, 72 hrs after transfection, n=6) is given as “inhibited”. Moreover, in the data set with EAAC1 (transfected HEK293 cells, n=4), the “decrease in affinity (Eadie-Scatchard plot of glutamate transport)” value is recorded as 4-10 fold. Also, the “effect on EAAT4 glutamate transport” value with EAAT4 [6] is recorded as “no effect”. Besides, the “binding to immobilized GST-EAAC1” value in the data set with GST-EAAC1 is “specifically binds”.
